This note sets out measurements from patent US6251894A, “1-(1,2-disubstituted piperidinyl)-4 (fused imidazole)-piperidine derivatives” (Janssen Pharmaceuticals N.V., priority 1995, dated 2001).

Test [1] has as its system Substance P Induced Plasma Extravasation. Kind of test: Antagonism of substance P induced plasma extravasation in guinea-pigs. The class given is in vivo, guinea-pig. As to conditions: Cavia porcellus, 1 hour prior to substance P. The protocol: Antagonism of Substance P Induced Plasma Extravasation in Guinea-pigs
Plasma travasation was induced by injection of substance P (2 mg/kg) in the femoral artery of female guinea-pigs. Evans Blue dye (30 mg/kg) was injected simultaneously. The test compound or solvent was administered subcutaneous (s.c.) or orally (p.o.) 1 hour prior to substance P injection. 10 minutes after challenge, the animals were checked for blue colouring (a direct measure for plasma extravasation) of the nose, the forepaws, and the conjunctiva. 30 minutes after challenge, the animals were sacrificed by CO2 gas inhalation and checked for blue colouring of the trachea and the urinary bladder. […]

For test [2], the system named is Substance P Induced Relaxation of the Pig Coronary Arteries. Description: Antagonism of substance P induced relaxation of the pig coronary arteries. As to conditions: 30 min incubation. Here is the method: Antagonism of Substance P Induced Relaxation of the Pig Coronary Arteries
Segments of coronary arteries taken from pigs (killed by injection of an overdose of sodium pentobarbital) were inverted and mounted for recording of isometric tension in organ baths (volume 20 ml) with the endothelium at the outside. The preparations were bathed in Krebs-Henseleit solution. The solution was kept at 37° C. and gassed with a mixture of O2 /CO2 (95/5). After stabilisation of the preparations, prostaglandin F2α (10^-5 M) was administered to induce a contraction. This was repeated until contractile responses became stable. Then prostaglandin F2α was again administered and substance P (3×10^-10 M and 10^-9 M cumulatively) was added. Substance P induced endothelium dependent relaxations. After washing away the agonists, a known concentration of a compound of formula (I) was added. After an incubation period of 30 minutes, prostaglandin F2α (10^-5 M) and the same concentrations of substance P as described above were again administered in the presence of the compound to be tested.

Setting [3] is: po, 10 min, p.o., conjunctiva, read-out: lowest active dose (LAD), conjunctiva.
Where [4] appears, read: po, 10 min, p.o., forepaws, read-out: lowest active dose (LAD), forepaws.
Where [5] appears, read: po, 10 min, p.o., nose, read-out: lowest active dose (LAD), nose.
[6] abbreviates: po, 0.5 h, p.o., trachea, read-out: lowest active dose (LAD), trachea.
[7] abbreviates: po, 0.5 h, p.o., urinary bladder, read-out: lowest active dose (LAD), urinary bladder.
Where [8] appears, read: test compound concentration 3 × 10^-9 (unit not given).
The mark [9] stands for this setting: sc, 10 min, s.c., conjunctiva, read-out: lowest active dose (LAD), conjunctiva.
[10] abbreviates: sc, 10 min, s.c., forepaws, read-out: lowest active dose (LAD), forepaws.
Where [11] appears, read: sc, 10 min, s.c., nose, read-out: lowest active dose (LAD), nose.
Setting [12] is: sc, 0.5 h, s.c., trachea, read-out: lowest active dose (LAD), trachea.
[13] abbreviates: sc, 0.5 h, s.c., urinary bladder, read-out: lowest active dose (LAD), urinary bladder.

Read-outs that look alike come from different tables or passages of the source.

As for `O=C1Cn2ccnc2C(=C2CCN([C@H]3CCN(C(=O)c4cc(C(F)(F)F)cc(C(F)(F)F)c4)[C@@H](Cc4ccccc4)C3)CC2)c2ccsc21` (relative stereo) [Compound 106], the minimal effective dose in test [1] (setting [3]), in test [1] (setting [4]), in test [1] (setting [5]), in test [1] (setting [6]) and in test [1] (setting [7]) was 10 mg/kg in each case. Moreover, the “% inhibition of the response to 10^-9 M substance P” value in test [2] (setting [8]) was 92.3%.
`O=C(c1cc(C(F)(F)F)cc(C(F)(F)F)c1)N1CC[C@@H](N2CCC(=C3c4ccccc4CCn4c(CO)cnc43)CC2)C[C@@H]1Cc1ccccc1` (relative stereo) [Compound 5]: the minimal effective dose in test [1] (setting [3]) turned out to be 2.5 mg/kg; in test [1] (setting [4]) it was 2.5 mg/kg; in test [1] (setting [5]), 2.5 mg/kg; in test [1] (setting [6]) it was 10 mg/kg; in test [1] (setting [7]), 10 mg/kg. The “% inhibition of the response to 10^-9 M substance P” value in test [2] (setting [8]) is 100.0%.
Regarding `O=C(c1cc(C(F)(F)F)cc(C(F)(F)F)c1)N1CC[C@@H](N2CCC(=C3c4ccsc4CCn4ccnc43)CC2)C[C@@H]1Cc1ccccc1` (relative stereo) [Compound 19], the minimal effective dose in test [1] (setting [9]) came to 2.5 mg/kg; in test [1] (setting [10]) it was 2.5 mg/kg; in test [1] (setting [11]) it was 2.5 mg/kg; in test [1] (setting [12]) it was 2.5 mg/kg; in test [1] (setting [13]), 10 mg/kg. The “% inhibition of the response to 10^-9 M substance P” value in test [2] (setting [8]) is recorded as 78.1%.
`Cc1cc(C)cc(C(=O)N2CC[C@@H](N3CCC(C4c5ccccc5CCn5ccnc54)CC3)C[C@@H]2Cc2ccccc2)c1` (stereo partly drawn) [Compound 27]: the minimal effective dose was determined as 2.5 mg/kg in test [1] (setting [9]); 2.5 mg/kg in test [1] (setting [10]); 2.5 mg/kg in test [1] (setting [11]); 10 mg/kg in test [1] (setting [12]); 2.5 mg/kg in test [1] (setting [13]). The “% inhibition of the response to 10^-9 M substance P” value in test [2] (setting [8]) was found to be 5.1%.
`Cc1cc(C)cc(C(=O)N2CC[C@@H](N3CCC(C4c5ccccc5CCn5ccnc54)CC3)C[C@H]2Cc2ccccc2)c1` (stereo partly drawn) [Compound 26]: the minimal effective dose in test [1] (setting [9]), in test [1] (setting [10]), in test [1] (setting [11]), in test [1] (setting [12]) and in test [1] (setting [13]) was 10 mg/kg each time. For the same compound, the “% inhibition of the response to 10^-9 M substance P” value in test [2] (setting [8]) came to 25.6%.
Take `Cc1cc(C)cc(C(=O)N2CC[C@@H](N3CCC(=C4c5ccn(C)c5CCn5ccnc54)CC3)C[C@@H]2Cc2ccccc2)c1` (relative stereo) [Compound 34]: the minimal effective dose was found to be 2.5 mg/kg in test [1] (setting [9]); 0.63 mg/kg in test [1] (setting [10]); 0.63 mg/kg in test [1] (setting [11]); 0.63 mg/kg in test [1] (setting [12]); 0.63 mg/kg in test [1] (setting [13]). Besides, the “% inhibition of the response to 10^-9 M substance P” value in test [2] (setting [8]) is 43.5%.
Regarding `Cc1cc(C)cc(C(=O)N2CCC(N3CCC(C4c5ccccc5Cn5ccnc54)CC3)CC2Cc2ccccc2)c1` (stereo not drawn) [Compound 108], the minimal effective dose in test [1] (setting [9]), in test [1] (setting [10]), in test [1] (setting [11]), in test [1] (setting [12]) and in test [1] (setting [13]) was 10 mg/kg in each case. For the same compound, the “% inhibition of the response to 10^-9 M substance P” value in test [2] (setting [8]) was found to be 2.6%.
As to `Cc1cc(C)cc(C(=O)N2CC[C@@H](N3CCC(=C4c5ccccc5CCn5c(CO)cnc54)CC3)C[C@@H]2Cc2ccccc2)c1` (relative stereo) [Compound 20], the minimal effective dose in test [1] (setting [9]), in test [1] (setting [10]), in test [1] (setting [11]), in test [1] (setting [12]) and in test [1] (setting [13]) was 2.5 mg/kg throughout. Besides, the “% inhibition of the response to 10^-9 M substance P” value in test [2] (setting [8]) came out at 9.5%.
Turning to `O=C(c1cc(C(F)(F)F)cc(C(F)(F)F)c1)N1CC[C@@H](N2CCC(C3c4ccccc4Cn4c3nc3ccccc34)CC2)C[C@@H]1Cc1ccccc1` (mixture of isomers) [Compound 15, (±)-trans-1-[3,5-bis(trifluoromethyl)benzoyl]-4-[4-(6,11-dihydrobenzimidazo[1,2-b]isoquinolin-6-yl)-1-piperidinyl]-2-phenylmethyl)piperidine], the minimal effective dose in test [1] (setting [3]), in test [1] (setting [4]), in test [1] (setting [5]), in test [1] (setting [6]) and in test [1] (setting [7]) was 10 mg/kg throughout. Also, in test [2] (test compound concentration 3 × 10^-8 (unit not given)), the “% inhibition of the response to 10^-9 M substance P” value was 95.4%.
Regarding `Cc1cc(C)cc(C(=O)N2CC[C@@H](N3CCC(=C4c5ccccc5CCn5c(C=O)cnc54)CC3)C[C@@H]2Cc2ccccc2)c1` (relative stereo) [Compound 25], the minimal effective dose amounted to 2.5 mg/kg in test [1] (setting [9]); 2.5 mg/kg in test [1] (setting [10]); 2.5 mg/kg in test [1] (setting [11]); 10 mg/kg in test [1] (setting [12]); 10 mg/kg in test [1] (setting [13]). Also, the “% inhibition of the response to 10^-9 M substance P” value in test [2] (setting [8]) turned out to be 100.0%.
As for `O=C(c1cc(C(F)(F)F)cc(C(F)(F)F)c1)N1CC[C@@H](N2CCC(C3c4ccccc4CCn4ccnc43)CC2)C[C@@H]1Cc1ccccc1` (stereo partly drawn) [Compound 8], the minimal effective dose in test [1] (setting [9]) came out at 10 mg/kg; in test [1] (setting [10]), 2.5 mg/kg; in test [1] (setting [11]) it was 2.5 mg/kg; in test [1] (setting [12]), 10 mg/kg; in test [1] (setting [13]) it was 10 mg/kg. Moreover, the “% inhibition of the response to 10^-9 M substance P” value in test [2] (setting [8]) turned out to be 82.3%.
In the case of `Cn1ccc2c1CCn1ccnc1C2=C1CCN([C@H]2CCN(C(=O)c3cc(C(F)(F)F)cc(C(F)(F)F)c3)[C@@H](Cc3ccccc3)C2)CC1` (racemic) [Compound 3, (±)-cis-1-[3,5-bis(trifluoromethyl)benzoyl]-4-[4-(5,6,7,10-tetrahydro-7-methylimidazo[1,2-a]-pyrrolo[3,2-d]azepin-10-ylidene)-1-piperidinyl]-2-(phenylmethyl)piperidine], the minimal effective dose in test [1] (setting [9]) worked out at 2.5 mg/kg; in test [1] (setting [10]), 2.5 mg/kg; in test [1] (setting [11]) it was 2.5 mg/kg; in test [1] (setting [12]), 10 mg/kg; in test [1] (setting [13]), 10 mg/kg. Moreover, the “% inhibition of the response to 10^-9 M substance P” value in test [2] (setting [8]) is 37.3%.
For the compound `O=C(c1cc(C(F)(F)F)cc(C(F)(F)F)c1)N1CC[C@H](N2CCC(=C3c4ccccc4OCn4ccnc43)CC2)C[C@@H]1Cc1ccccc1` (relative stereo) [Compound 113], the minimal effective dose in test [1] (setting [9]), in test [1] (setting [10]), in test [1] (setting [11]), in test [1] (setting [12]) and in test [1] (setting [13]) was 10 mg/kg in each case. The “% inhibition of the response to 10^-9 M substance P” value in test [2] (setting [8]) turned out to be 87.9%.
In the case of `O=C(c1cc(C(F)(F)F)cc(C(F)(F)F)c1)N1CC[C@H](N2CCC(=C3c4ccccc4CCn4c3nc3ccccc34)CC2)C[C@H]1Cc1ccccc1` (relative stereo) [Compound 72], the minimal effective dose in test [1] (setting [3]), in test [1] (setting [4]), in test [1] (setting [5]), in test [1] (setting [6]) and in test [1] (setting [7]) was 10 mg/kg throughout. The “% inhibition of the response to 10^-9 M substance P” value in test [2] (setting [8]) is on record as 97.4%.
For the compound `Cc1cc(C)cc(C(=O)N2CC[C@@H](N3CCC4(CC3)c3ccccc3CCn3ccnc34)C[C@@H]2Cc2ccccc2)c1` (relative stereo) [Compound 120], the minimal effective dose in test [1] (setting [9]) stood at 2.5 mg/kg; in test [1] (setting [10]) it was 2.5 mg/kg; in test [1] (setting [11]) it was 2.5 mg/kg; in test [1] (setting [12]), 10 mg/kg; in test [1] (setting [13]), 10 mg/kg. Further, the “% inhibition of the response to 10^-9 M substance P” value in test [2] (setting [8]) was 7.7%.
Consider `Cc1cc(C)cc(C(=O)N2CC[C@@H](N3CCC(=C4c5sccc5CCn5ccnc54)CC3)C[C@H]2Cc2ccccc2)c1` (relative stereo) [Compound 35], for which the minimal effective dose in test [1] (setting [9]), in test [1] (setting [10]), in test [1] (setting [11]), in test [1] (setting [12]) and in test [1] (setting [13]) was 10 mg/kg each time. In addition, the “% inhibition of the response to 10^-9 M substance P” value in test [2] (setting [8]) was found to be 27.7%.
